This note sets out measurements from patent US9795139B2, “Molecules having pesticidal utility, and intermediates, compositions, and processes, related thereto” (priority 2015, dated 2017).

Holding throughout (assay type): in vivo
Series [1] deals with Cabbage Looper (Trichoplusia ni, TRIPNI). Description: Bioassay on Cabbage Looper (CL), 128-well diet tray assay. The note with it: 168 h, 50 μg/cm^2 on artificial diet, second instar larvae, 25° C., five to seven days, average of eight wells, read-out: CL % Control (or Mortality) rating. A digest of the protocol: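 Diet-incorporation-free surface assay: 50 μg/cm^2 compound in acetone-water (90:10), dried on diet; 1–5 2nd-instar larvae/well; 8 wells; vented cover; 25° C., 14:10 L:D, 5–7 d; % mortality averaged over wells.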

Series [2] deals with Green Peach Aphid (Myzus persicae, MYZUPE). The series is described as follows: Bioassay on Green Peach Aphid (GPA), foliar spray on cabbage seedlings. The settings on record: 72 h, 200 ppm foliar spray on cabbage seedlings, three days, Abbott corrected % control, read-out: GPA % Control (or Mortality) rating. The method, then: Certain molecules disclosed in this document were tested against GPA using procedures described in the following example. In the reporting of the results, the “GPA & YFM Rating Table” was used (See Table Section).
Cabbage seedlings grown in 3-inch pots, with 2-3 small (3-5 cm) true leaves, were used as test substrate. The seedlings were infested with 20-50 GPA (wingless adult and nymph stages) one day prior to chemical application. Four pots with individual seedlings were used for each treatment. Test molecules (2 mg) were dissolved in 2 mL of acetone/methanol (1:1) solvent, forming stock solutions of 1000 ppm test molecule.
The stock solutions were diluted 5× with 0.025% Tween 20 in water to obtain the solution at 200 ppm test molecule. A hand-held aspirator-type sprayer was used for spraying a solution to both sides of […] leaves until runoff. Reference plants (solvent check) were sprayed with the diluent only containing 20% by volume of acetone/methanol (1:1) solvent. Treated plants were held in a holding room for three days at approximately 25° C. and ambient relative humidity (RH) prior to grading. Evaluation was conducted by counting the number of live aphids per plant under a microscope. Percent control was measured using Abbott's correction formula (W. S. Abbott, “A Method of Computing the Effectiveness of an Insecticide” J. Econ. Entomol. 18 (1925), pp. 265-267) as follows. Corrected % Control=100*(X−Y)/X where X=No. of live aphids on solvent check plants and Y=No. of live aphids on treated plants. The results are indicated in the table entitled “Table ABC: Biological Results” (See Table Section).

Series [3] relates to Yellow Fever Mosquito (Aedes aegypti, AEDSAE). The note with it: about 1 day-old larvae, 96-well plate from 4000 ppm DMSO master, 3 days at room temperature. In short, it runs like this: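 Each well was scored for mortality after 3 days at room temperature under a non-evaporative lid. Test molecules came from DMSO masters (4000 ppm stock) diluted with water/acetone 90:10 and dispensed into six replicate plates, which were then infested with roughly 1-day-old larvae in liver-powder water.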

For series [4], the system named is Beet Armyworm (Spodoptera exigua, LAPHEG). The series is described as follows: Bioassay on Beet Armyworm (BAW), 128-well diet tray assay. The note with it: 168 h, 50 μg/cm^2 on artificial diet, second instar larvae, 25° C., five to seven days, average of eight wells, read-out: BAW % Control (or Mortality) rating. A digest of the protocol:
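In a 128-well format, eight wells per compound received a surface dose of 50 μg/cm^2 on artificial diet. After drying, each well got one to five second instar larvae, held at 25° C. with 14:10 photoperiod. Mortality percentages after five to seven days were averaged.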

A word on the mortality: it is the percentage killed.

As to `O=C(NC1CC1)c1cccc(NC(=O)[C@H]2[C@H](c3cc(Cl)cc(Cl)c3)C2(Cl)Cl)c1` (relative stereo) [Molecule F3, trans-N-Cyclopropyl-3-(2,2-dichloro-3-(3,5-dichlorophenyl)cyclopropanecarboxamido)benzamide], the mortality at 50 µg/cm2 in series [1] and in series [4] was 50 to 100% throughout. The mortality at 200 ppm in series [2] was in the range of 0 to 80%. Besides, the “YFM % Control (or Mortality) rating” value in series [3] is given as “A (80-100)”.

For the molecule `N#CC1(NC(=O)c2cc(NC(=O)[C@H]3[C@H](c4cc(Cl)cc(Cl)c4)C3(Cl)Cl)ccc2Cl)CC1` (relative stereo) [Molecule F4, trans-2-Chloro-N-(1-cyanocyclopropyl)-5-(2,2-dichloro-3-(3,5-dichlorophenyl)cyclopropanecarboxamido)benzamide], the mortality at 50 µg/cm2 in series [1] and in series [4] was 50 to 100% each time. Moreover, the mortality at 200 ppm in series [2] is 80 to 100%. Moreover, in series [3], the “YFM % Control (or Mortality) rating” value is “A (80-100)”.

Turning to `O=C(NC1CC(F)(F)C1)c1cc(NC(=O)[C@H]2[C@H](c3cc(Cl)cc(Cl)c3)C2(Cl)Cl)ccc1Cl` (relative stereo) [Molecule F5, trans-2-Chloro-5-(2,2-dichloro-3-(3,5-dichlorophenyl)cyclopropanecarboxamido)-N-(3,3-difluorocyclobutyl)benzamide], the mortality at 50 µg/cm2 in series [1] and in series [4] was 50 to 100% in each case. In addition, the mortality at 200 ppm in series [2] was 80 to 100%. In series [3], the “YFM % Control (or Mortality) rating” value is “A (80-100)”.

Take `O=C(NC1CCSC1)c1cc(NC(=O)[C@H]2[C@H](c3cc(Cl)c(Cl)c(Cl)c3)C2(Cl)Cl)ccc1Cl` (relative stereo) [Molecule F8, trans-2-chloro-5-(2,2-dichloro-3-(3,4,5-trichlorophenyl)cyclopropanecarboxamido)-N-(tetrahydrothiophen-3-yl)benzamide]: the mortality at 50 µg/cm2 in series [1] and in series [4] was 50 to 100% throughout. In addition, in series [2], the mortality at 200 ppm is 0%. In series [3], the “YFM % Control (or Mortality) rating” value was “A (80-100)”.

`O=C(NC1CC(F)(F)C1)c1cc(NC(=O)[C@H]2[C@H](c3ccc(Cl)c(Cl)c3)C2(Cl)Cl)ccc1Cl` (relative stereo) [Molecule F9, trans-2-Chloro-5-(2,2-dichloro-3-(3,4-dichlorophenyl)cyclopropanecarboxamido)-N-(3,3-difluorocyclobutyl)benzamide]: the mortality at 50 µg/cm2 in series [1] and in series [4] was 50 to 100% throughout. In addition, in series [2], the mortality at 200 ppm was 80 to 100%. For the same molecule, the “YFM % Control (or Mortality) rating” value in series [3] was “A (80-100)”.

Take `N#CC1(NC(=O)c2cc(NC(=O)[C@H]3[C@H](c4cc(Cl)c(Cl)c(Cl)c4)C3(Cl)Cl)ccc2Cl)CC1` (relative stereo) [Molecule F10, trans-2-Chloro-N-(1-cyanocyclopropyl)-5-(2,2-dichloro-3-(3,4,5-trichlorophenyl)cyclopropanecarboxamido)benzamide]: the mortality at 50 µg/cm2 in series [1] and in series [4] was 50 to 100% each time. For the same molecule, the mortality at 200 ppm in series [2] was in the range of 80 to 100%. The “YFM % Control (or Mortality) rating” value in series [3] was “A (80-100)”.

Take `N#CC1(NC(=O)c2cc(NC(=O)[C@H]3[C@H](c4ccc(Cl)c(Cl)c4)C3(Cl)Cl)ccc2Cl)CC1` (relative stereo) [Molecule F11, trans-2-Chloro-N-(1-cyanocyclopropyl)-5-(2,2-dichloro-3-(3,4-dichlorophenyl)cyclopropanecarboxamido)benzamide]: the mortality at 50 µg/cm2 in series [1] and in series [4] was 50 to 100% in each case. The mortality at 200 ppm in series [2] is 80 to 100%. The “YFM % Control (or Mortality) rating” value in series [3] is “A (80-100)”.

Take `N#CC1(NC(=O)c2cc(NC(=O)[C@H]3[C@H](c4cc(Cl)cc(Cl)c4)C3(Cl)Cl)ccc2Cl)CCC1` (relative stereo) [Molecule F12, trans-2-Chloro-N-(1-cyanocyclobutyl)-5-(2,2-dichloro-3-(3,5-dichlorophenyl)cyclopropanecarboxamido)benzamide]: the mortality at 50 µg/cm2 in series [1] and in series [4] was 50 to 100% in each case. The mortality at 200 ppm in series [2] was 0 to 80%. Also, in series [3], the “YFM % Control (or Mortality) rating” value was “A (80-100)”.

Turning to `N#CC1(NC(=O)c2cc(NC(=O)[C@H]3[C@H](c4cc(Cl)c(Cl)c(Cl)c4)C3(Cl)Cl)ccc2Cl)CCC1` (relative stereo) [Molecule F13, trans-2-Chloro-N-(1-cyanocyclobutyl)-5-(2,2-dichloro-3-(3,4,5-trichlorophenyl)cyclopropanecarboxamido)benzamide], the mortality at 50 µg/cm2 in series [1] and in series [4] was 50 to 100% each time. In series [2], the mortality at 200 ppm was 0 to 80%. In series [3], the “YFM % Control (or Mortality) rating” value was “A (80-100)”.

For `O=C(NC1CSC1)c1cc(NC(=O)[C@H]2[C@H](c3cc(Cl)cc(Cl)c3)C2(Cl)Cl)ccc1Cl` (relative stereo) [Molecule F15, trans-2-Chloro-5-(2,2-dichloro-3-(3,5-dichlorophenyl)cyclopropanecarboxamido)-N-(thietan-3-yl)benzamide], the mortality at 50 µg/cm2 in series [1] and in series [4] was 50 to 100% throughout. In addition, the mortality at 200 ppm in series [2] fell in the range of 80 to 100%. The “YFM % Control (or Mortality) rating” value in series [3] is on record as “A (80-100)”.

`O=C(NC1CSC1)c1cc(NC(=O)[C@H]2[C@H](c3ccc(Cl)c(Cl)c3)C2(Cl)Cl)ccc1Cl` (relative stereo) [Molecule F16, trans-2-Chloro-5-(2,2-dichloro-3-(3,4-dichlorophenyl)cyclopropanecarboxamido)-N-(thietan-3-yl)benzamide]: the mortality at 50 µg/cm2 in series [1] and in series [4] was 50 to 100% throughout. Further, in series [2], the mortality at 200 ppm was 80 to 100%. In addition, in series [3], the “YFM % Control (or Mortality) rating” value is listed as “A (80-100)”.

Consider `O=C(NC1CSC1)c1cc(NC(=O)[C@H]2[C@H](c3cc(Cl)c(Cl)c(Cl)c3)C2(Cl)Cl)ccc1Cl` (relative stereo) [Molecule F17, trans-2-Chloro-5-(2,2-dichloro-3-(3,4,5-trichlorophenyl)cyclopropanecarboxamido)-N-(thietan-3-yl)benzamide], for which the mortality at 50 µg/cm2 in series [1] and in series [4] was 50 to 100% throughout. For the same molecule, the mortality at 200 ppm in series [2] lay in the range of 80 to 100%. Moreover, the “YFM % Control (or Mortality) rating” value in series [3] is “A (80-100)”.

Consider `N#CC1(NC(=O)c2cc(NC(=O)[C@H]3[C@H](c4cccc(C(F)(F)F)c4)C3(Cl)Cl)ccc2Cl)CC1` (relative stereo) [Molecule F18, trans-2-Chloro-N-(1-cyanocyclopropyl)-5-(2,2-dichloro-3-(3-(trifluoromethyl)phenyl)cyclopropanecarboxamido)benzamide], for which the mortality at 50 µg/cm2 in series [1] and in series [4] was 50 to 100% throughout. In addition, in series [2], the mortality at 200 ppm is 80 to 100%. In addition, the “YFM % Control (or Mortality) rating” value in series [3] was “B (More than 0-Less than 80)”.

In the case of `O=C(NC1CCOCC1)c1cc(NC(=O)[C@H]2[C@H](c3cc(Cl)cc(Cl)c3)C2(Cl)Cl)ccc1Cl` (relative stereo) [Molecule F55, trans-2-chloro-5-(2,2-dichloro-3-(3,5-dichlorophenyl)cyclopropanecarboxamido)-N-(tetrahydro-2H-pyran-4-yl)benzamide], the mortality at 50 µg/cm2 in series [1] and in series [4] was 50 to 100% throughout. In series [2], the mortality at 200 ppm was 80 to 100%.
